# Results as given in ChEMBL document CHEMBL1125924, “Thienotriazolodiazepines as platelet-activating factor antagonists. Steric limitations for the substituent in position 2” (J Med Chem, 1991).
# Calls of active or inactive are those of the source. The rule behind the calls is not given here.
# How the values were obtained:
# Cavia porcellus [1] = test: In vivo inhibition against PAF-induced bronchoconstriction in guinea pig at 1 mg/kg dose upon peroral administration after […] pre-treatment time.; format: functional; details: route oral
# Cavia porcellus [2] = test: In vivo inhibitory dose against PAF-induced bronchoconstriction in guinea pig upon intravenous administration after one-minute pre-treatment time.; format: functional; details: read-out: ID50 (the source's name)
# Cavia porcellus [3] = test: In vivo inhibitory dose against PAF-induced bronchoconstriction in guinea pig upon intravenous administration after one-minute pretreatment time; IA=Inactive; format: functional, organism-based
# Cavia porcellus [4] = test: In vivo inhibitory dose against PAF-induced bronchoconstriction in guinea pig upon peroral administration after […] pretreatment time; format: functional; details: po, read-out: ID50 (the source's name)
# [5] = In vitro for platelet activating factor receptor antagonist activity in a binding assay using washed whole dog platelets.
Compound,inhibition in vivo at 1 mg/kg (Cavia porcellus [1]),ED50 (Cavia porcellus [2]),ID50 (Cavia porcellus [3]),ED50 (Cavia porcellus [4]),IC50 [5]
Cc1nnc2n1-c1sc(/C(CC(=O)N3CCOCC3)=N\N)cc1C(c1ccccc1Cl)=NC2,12%,0.5 mg/kg,–,–,–
Cc1nnc2n1-c1sc(-c3cc(O)[nH]n3)cc1C(c1ccccc1Cl)=NC2,–,–,inactive,–,–
Cc1nnc2n1-c1sc(CCc3ccc(-n4ccnc4)cc3)cc1C(c1ccccc1Cl)=NC2,95%,0.003 mg/kg,–,0.4 mg/kg,–
Cc1nnc2n1-c1sc(/C=C/C(=O)N3CCOCC3)cc1C(c1ccccc1Cl)=NC2,27%,0.4 mg/kg,–,–,–
CCCCc1ccc(/C=C\c2cc3c(s2)-n2c(C)nnc2CN=C3c2ccccc2Cl)cc1,93%,0.0004 mg/kg,–,0.35 mg/kg,–
Cc1nnc2n1-c1sc(CCc3ccc(CC(C)C)cc3)cc1C(c1ccccc1Cl)=NC2,99%,0.002 mg/kg,–,0.03 mg/kg,–
Cc1nnc2n1-c1sc(C#Cc3ccc4c(c3)CCO4)cc1C(c1ccccc1Cl)=NC2,7%,0.2 mg/kg,–,–,–
Cc1nnc2n1-c1sc(I)cc1C(c1ccccc1Cl)=NC2,4%,0.2 mg/kg,–,–,370 nM
Cc1nnc2n1-c1sc(C#Cc3ccc(CC(C)C)cc3)cc1C(c1ccccc1Cl)=NC2,2%,0.3 mg/kg,–,–,–
CCCCc1ccc(CCc2cc3c(s2)-n2c(C)nnc2CN=C3c2ccccc2Cl)cc1,98%,0.003 mg/kg,–,0.2 mg/kg,–
Cc1nnc2n1-c1sc(Br)cc1C(c1ccccc1Cl)=NC2 [BROTIZOLAM],11%,0.5 mg/kg,–,–,–
Cc1nnc2n1-c1sc(C#CC(=O)N3CCOCC3)cc1C(c1ccccc1Cl)=NC2,16%,0.5 mg/kg,–,–,–
Cc1nnc2n1-c1sc(C#Cc3ccccc3)cc1C(c1ccccc1Cl)=NC2,6%,3 mg/kg,–,–,–
Cc1nnc2n1-c1sc(C#Cc3ccc4c(c3)CCC4)cc1C(c1ccccc1Cl)=NC2,20%,0.2 mg/kg,–,–,–
Cc1nnc2n1-c1sc(/C=C\c3ccc4c(c3)CCC4)cc1C(c1ccccc1Cl)=NC2,58%,0.03 mg/kg,–,0.7 mg/kg,–
Cc1nnc2n1-c1sc(-c3[nH]nnc3C(=O)N3CCOCC3)cc1C(c1ccccc1Cl)=NC2,–,–,inactive,–,–
Cc1nnc2n1-c1sc(CCc3ccc4c(c3)CCO4)cc1C(c1ccccc1Cl)=NC2,44%,0.003 mg/kg,–,–,–
Cc1nnc2n1-c1sc(CCc3ccc(C4CCCCC4)cc3)cc1C(c1ccccc1Cl)=NC2,68%,0.005 mg/kg,–,0.4 mg/kg,–

Compound,inhibition in vivo at 1 mg/kg (Cavia porcellus [1]),ED50 (Cavia porcellus [2]),ID50 (Cavia porcellus [3]),ED50 (Cavia porcellus [4]),IC50 [5]
Cc1nnc2n1-c1sc(/C=C\C(=O)N3CCOCC3)cc1C(c1ccccc1Cl)=NC2,20%,0.06 mg/kg,–,–,–
Cc1nnc2n1-c1sc(CCc3ccc4c(c3)CCC4)cc1C(c1ccccc1Cl)=NC2,99%,0.04 mg/kg,–,0.03 mg/kg,–
Cc1nnc2n1-c1sc(CCc3ccc(-c4ccccn4)s3)cc1C(c1ccccc1Cl)=NC2,89%,0.003 mg/kg,–,0.4 mg/kg,–
Cc1nnc2n1-c1sc(/C=C\c3ccc(C4CCCCC4)cc3)cc1C(c1ccccc1Cl)=NC2,85%,0.03 mg/kg,–,0.4 mg/kg,–
Cc1cc(C#Cc2cc3c(s2)-n2c(C)nnc2CN=C3c2ccccc2Cl)cc2c1OC(C)(C)C2,–,–,inactive,–,–
Cc1nnc2n1-c1sc(C#Cc3ccccn3)cc1C(c1ccccc1Cl)=NC2,5%,0.06 mg/kg,–,–,–
Cc1nnc2n1-c1sc(C#C[Si](C)(C)C)cc1C(c1ccccc1Cl)=NC2,28%,0.3 mg/kg,–,–,–
CCCCc1ccc(C#Cc2cc3c(s2)-n2c(C)nnc2CN=C3c2ccccc2Cl)cc1,6%,0.2 mg/kg,–,–,–
Cc1cc(CCc2cc3c(s2)-n2c(C)nnc2CN=C3c2ccccc2Cl)cc2c1OC(C)(C)C2,96%,0.01 mg/kg,–,0.3 mg/kg,–
Cc1nnc2n1-c1sc(CCC(=O)N3CCOCC3)cc1C(c1ccccc1Cl)=NC2 [APAFANT],42%,0.03 mg/kg,–,1.2 mg/kg,–
Cc1nnc2n1-c1sc(/C=C\c3ccc(CC(C)C)cc3)cc1C(c1ccccc1Cl)=NC2,99%,0.004 mg/kg,–,0.03 mg/kg,–
Cc1nnc2n1-c1sc(C#Cc3cccc4ccccc34)cc1C(c1ccccc1Cl)=NC2,14%,0.03 mg/kg,–,–,–
C#Cc1cc2c(s1)-n1c(C)nnc1CN=C2c1ccccc1Cl,9%,0.02 mg/kg,–,–,–
Cc1nnc2n1-c1sc(C#Cc3ccc(C4CCCCC4)cc3)cc1C(c1ccccc1Cl)=NC2,22%,0.3 mg/kg,–,–,–
Cc1nnc2n1-c1sc(C#CCO)cc1C(c1ccccc1Cl)=NC2,20%,0.02 mg/kg,–,–,–
Cc1nnc2n1-c1sc(C#Cc3ccc(-c4ccccn4)s3)cc1C(c1ccccc1Cl)=NC2,93%,0.003 mg/kg,–,0.08 mg/kg,–
Cc1nnc2n1-c1sc(/C=C\c3ccccn3)cc1C(c1ccccc1Cl)=NC2,20%,0.05 mg/kg,–,–,–
